Test results as given in PubChem BioAssay AID328 (DTP/NCI, 2004).
Several values for one entry are separate records, joined by “and”; a condition that tells them apart may be missing. Equal values may be shown once. Toxic doses and inconclusive results are not listed. Rule for the calls: active = survival T/C of 150% or more; inactive = T/C below 125% in these data.

Tested on: BDF1 mice, P388 leukemia ip, median survival T/C
Assay: NCI In Vivo Anticancer Drug Screen. Data for tumor model P388 Leukemia (intraperitoneal) in B6D2F1 (BDF1) mice
Details: endpoint: median survival time, higher = longer survival
Method in brief: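 Mice carrying the transplantable tumour receive compound or vehicle. Survival is followed in each arm, and the treated measure is divided by the vehicle measure.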

[1] = dose: 100.0 mg/kg/injection, schedule: Q01DX009 (ip), vehicle: saline with Tween-80
[2] = dose: 100.0 mg/kg/injection, schedule: Q04DX003 (ip), vehicle: saline with Tween-80
[3] = dose: 200.0 mg/kg/injection, schedule: Q01DX009 (ip), vehicle: saline with Tween-80
[4] = dose: 200.0 mg/kg/injection, schedule: Q04DX003 (ip), vehicle: saline with Tween-80
[5] = dose: 400.0 mg/kg/injection, schedule: Q04DX003 (ip), vehicle: saline with Tween-80
[6] = dose: 100.0 mg/kg/injection, schedule: Q04DX003 (ip), vehicle: saline
[7] = dose: 200.0 mg/kg/injection, schedule: Q04DX003 (ip), vehicle: saline
[8] = dose: 400.0 mg/kg/injection, schedule: Q04DX003 (ip), vehicle: saline
[9] = dose: 100.0 mg/kg/injection, schedule: Q04DX003 (ip), vehicle: Klucel (hydroxypropylcellulose) (HPC)
[10] = dose: 50.0 mg/kg/injection, schedule: Q01DX009 (ip), vehicle: saline with Tween-80
[11] = dose: 100.0 mg/kg/injection, schedule: Q01DX009 (ip), vehicle: saline
[12] = dose: 400.0 mg/kg/injection, schedule: Q01DX009 (ip), vehicle: saline

Measured: T/C

CCCCCCCOc1ccc(OCCCC[N+]2(CC)CCCCC2)cc1
inactive: dose: 6.25 mg/kg/injection, schedule: Q01DX009 (ip), vehicle: saline 100 % of control

COc1ccc(OC)c(Br)c1
inactive: [1] 110 % of control | [2] 100 % of control | dose: 178.0 mg/kg/injection, schedule: Q01DX009 (ip), vehicle: saline with Tween-80 118 % of control | [3] 120 % of control | [4] 100 % of control | dose: 266.0 mg/kg/injection, schedule: Q01DX009 (ip), vehicle: saline with Tween-80 118 % of control | dose: 400.0 mg/kg/injection, schedule: Q01DX009 (ip), vehicle: saline with Tween-80 109 % of control | [5] 113 % of control

NNCCC(=O)O
inactive: [6] 91 % of control | [7] 112 % of control | dose: 264.0 mg/kg/injection, schedule: Q04DX003 (ip), vehicle: saline 113 % of control | [8] 118 % of control and 123 % of control

CC(C)C(=O)OCC1OC(n2cnc3c(=S)nc(N)[nH]c32)C(OC(=O)C(C)C)C1OC(=O)C(C)C (centres undefined)
inactive: dose: 25.0 mg/kg/injection, schedule: Q01DX009 (ip), vehicle: Klucel (hydroxypropylcellulose) (HPC) 92 % of control

CC(=O)c1ccccc1Br
inactive: dose: 100.0 mg/kg/injection, schedule: Q01DX001 (ip), vehicle: Klucel (hydroxypropylcellulose) (HPC) 95 % of control | [9] 95 % of control | dose: 200.0 mg/kg/injection, schedule: Q01DX001 (ip), vehicle: Klucel (hydroxypropylcellulose) (HPC) 108 % of control | dose: 200.0 mg/kg/injection, schedule: Q04DX003 (ip), vehicle: Klucel (hydroxypropylcellulose) (HPC) 100 % of control | dose: 400.0 mg/kg/injection, schedule: Q01DX001 (ip), vehicle: Klucel (hydroxypropylcellulose) (HPC) 100 % of control | dose: 400.0 mg/kg/injection, schedule: Q04DX003 (ip), vehicle: Klucel (hydroxypropylcellulose) (HPC) 100 % of control

O=S1(=O)CCN(C2CCCCCCCCCCC2)CC1
inactive: dose: 50.0 mg/kg/injection, schedule: Q01DX009 (ip), vehicle: Klucel (hydroxypropylcellulose) (HPC) 108 % of control | dose: 100.0 mg/kg/injection, schedule: Q01DX009 (ip), vehicle: Klucel (hydroxypropylcellulose) (HPC) 106 % of control | dose: 200.0 mg/kg/injection, schedule: Q01DX009 (ip), vehicle: Klucel (hydroxypropylcellulose) (HPC) 101 % of control

c1ccc(C2OC2c2ccccc2)cc1 (centres undefined)
inactive: dose: 50.0 mg/kg/injection, schedule: Q04DX003 (ip), vehicle: Klucel (hydroxypropylcellulose) (HPC) 89 % of control | dose: 75.0 mg/kg/injection, schedule: Q01DX009 (ip), vehicle: Klucel (hydroxypropylcellulose) (HPC) 90 % of control | [9] 89 % of control | dose: 150.0 mg/kg/injection, schedule: Q01DX009 (ip), vehicle: Klucel (hydroxypropylcellulose) (HPC) 104 % of control | dose: 300.0 mg/kg/injection, schedule: Q01DX009 (ip), vehicle: Klucel (hydroxypropylcellulose) (HPC) 104 % of control

c1csc(C2Nc3ccccc3N2)c1
inactive: [10] 105 % of control | [1] 99 % of control | [3] 119 % of control

O=C(CNC(=O)Nc1n[nH]c(=S)s1)NNC(=S)Nc1ccccc1
inactive: [10] 115 % of control | [1] 118 % of control | [3] 109 % of control

S=C1SC(c2ccccc2)(c2ccccc2)c2ccccc21
inactive: dose: 100.0 mg/kg/injection, schedule: Q01DX001 (ip), vehicle: saline with Tween-80 100 % of control | dose: 200.0 mg/kg/injection, schedule: Q01DX001 (ip), vehicle: saline with Tween-80 94 % of control | dose: 400.0 mg/kg/injection, schedule: Q01DX001 (ip), vehicle: saline with Tween-80 93 % of control

Cn1c(O)c(C=N)c(=O)[nH]c1=O
inactive: [11] 100 % of control | [6] 100 % of control | [7] 92 % of control | [12] 109 % of control | [8] 107 % of control

CC(=O)CC(C)=O.CC(=O)CC(C)=O.O.O.[Co]
inactive: dose: 22.0 mg/kg/injection, schedule: Q04DX003 (ip), vehicle: saline with Tween-80 105 % of control | dose: 33.0 mg/kg/injection, schedule: Q04DX003 (ip), vehicle: saline with Tween-80 113 % of control | dose: 75.0 mg/kg/injection, schedule: Q04DX003 (ip), vehicle: saline with Tween-80 102 % of control

S=C1Cc2[nH]c(=S)sc(=S)c2C(=S)N1
inactive: dose: 6.25 mg/kg/injection, schedule: Q01DX009 (ip), vehicle: saline with Tween-80 95 % of control | dose: 12.5 mg/kg/injection, schedule: Q01DX009 (ip), vehicle: saline with Tween-80 99 % of control | dose: 25.0 mg/kg/injection, schedule: Q01DX009 (ip), vehicle: saline with Tween-80 101 % of control

Nc1ccc(N2N=C(N3CCCC3)CC2=O)cc1
inactive: dose: 50.0 mg/kg/injection, schedule: Q01DX005 (ip), vehicle: saline with Tween-80 89 % of control | dose: 100.0 mg/kg/injection, schedule: Q01DX005 (ip), vehicle: saline with Tween-80 89 % of control | dose: 200.0 mg/kg/injection, schedule: Q01DX005 (ip), vehicle: saline with Tween-80 103 % of control

CO[C@H]1C[C@H](O[C@H]2CC[C@@]3(C)[C@H](CC[C@@H]4[C@@H]3CC[C@]3(C)[C@@H](C5=CC(=O)OC5)CC[C@]43O)C2)O[C@H](C)[C@H]1O
inactive: dose: 4.3 mg/kg/injection, schedule: Q01DX009 (ip), vehicle: saline with Tween-80 99 % of control | dose: 6.4 mg/kg/injection, schedule: Q01DX009 (ip), vehicle: saline with Tween-80 107 % of control | dose: 9.6 mg/kg/injection, schedule: Q01DX009 (ip), vehicle: saline with Tween-80 107 % of control

CS(=O)(=O)C(=Cc1ccccc1Cl)S(C)(=O)=O
inactive: [11] 104 % of control | dose: 200.0 mg/kg/injection, schedule: Q01DX009 (ip), vehicle: saline 118 % of control | [12] 121 % of control

N#CC(=C=[N-])[n+]1ccccc1
inactive: dose: 3.12 mg/kg/injection, schedule: Q01DX009 (ip), vehicle: Klucel (hydroxypropylcellulose) (HPC) 110 % of control | dose: 6.25 mg/kg/injection, schedule: Q01DX009 (ip), vehicle: Klucel (hydroxypropylcellulose) (HPC) 110 % of control | dose: 12.5 mg/kg/injection, schedule: Q01DX009 (ip), vehicle: Klucel (hydroxypropylcellulose) (HPC) 100 % of control | dose: 18.0 mg/kg/injection, schedule: Q01DX009 (ip), vehicle: Klucel (hydroxypropylcellulose) (HPC) 100 % of control | dose: 28.0 mg/kg/injection, schedule: Q01DX009 (ip), vehicle: Klucel (hydroxypropylcellulose) (HPC) 115 % of control

Cc1ccc2c(c1O)NC(=O)C1CCCN1C2=O (centres undefined)
inactive: dose: 100.0 mg/kg/injection, schedule: Q04DX002 (ip), vehicle: saline with Tween-80 99 % of control | dose: 200.0 mg/kg/injection, schedule: Q04DX002 (ip), vehicle: saline with Tween-80 102 % of control | dose: 400.0 mg/kg/injection, schedule: Q04DX002 (ip), vehicle: saline with Tween-80 101 % of control

COc1ccc(CSc2ncnc3nc[nH]c23)cc1
inactive: [1] 95 % of control | [2] 100 % of control | [4] 100 % of control | [5] 87 % of control
